This experiment addresses G/T mismatch-specific thymine DNA glycosylase (Homo sapiens) (UniProt Q13569). As to the kind of experiment: Inhibition of TDG in human HEK293T at 10 uM by Renilla luciferase based reporter assay relative to control. Format: cell-based.

By inhibition is commonly meant the percentage by which the read-out fell short of the control. Low values mean a weak effect, high ones a strong effect.

Chain of G/T mismatch-specific thymine DNA glycosylase (Homo sapiens) (Q13569 whole entry): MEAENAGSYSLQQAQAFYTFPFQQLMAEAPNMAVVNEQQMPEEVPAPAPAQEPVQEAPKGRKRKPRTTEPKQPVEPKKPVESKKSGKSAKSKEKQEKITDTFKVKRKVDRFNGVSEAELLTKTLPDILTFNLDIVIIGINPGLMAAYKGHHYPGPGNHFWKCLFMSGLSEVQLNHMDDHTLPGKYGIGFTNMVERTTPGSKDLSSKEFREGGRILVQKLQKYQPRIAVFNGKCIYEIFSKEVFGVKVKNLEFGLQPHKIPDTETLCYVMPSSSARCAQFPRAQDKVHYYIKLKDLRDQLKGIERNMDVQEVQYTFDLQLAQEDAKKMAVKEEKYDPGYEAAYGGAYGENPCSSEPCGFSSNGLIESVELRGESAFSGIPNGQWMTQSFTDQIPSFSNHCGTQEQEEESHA

Turning to `Cc1ccc(C2CCN(CCC(=O)c3ccc4c(c3)OCCO4)C2)cc1` (stereo unspecified), the inhibition is under 25%.

These data come from ChEMBL document CHEMBL5393450, “Compounds inhibiting tdg activity” (2022).
